This passage reports kinase still bound, per cent of control results from the kinase profiling compilation of Christmann-Franck et al. (2016).

The structures appear in SMILES notation.

Experiment in all cases: KINOMEscan competition binding
Holding throughout (settings): compound 10.0 µM

The subject of experiment [1] is FGFR3 (human), P22607 [G697C].
Experiment [2] deals with FLT3 (human), P36888 [D835Y].
The subject of experiment [3] is BMX (human), P51813 [V600E].
For experiment [4], the system named is KIT (human), P10721 [D816H].
Sequence of KIT (human), P10721 [D816H] (P10721 whole entry D816H, looked up): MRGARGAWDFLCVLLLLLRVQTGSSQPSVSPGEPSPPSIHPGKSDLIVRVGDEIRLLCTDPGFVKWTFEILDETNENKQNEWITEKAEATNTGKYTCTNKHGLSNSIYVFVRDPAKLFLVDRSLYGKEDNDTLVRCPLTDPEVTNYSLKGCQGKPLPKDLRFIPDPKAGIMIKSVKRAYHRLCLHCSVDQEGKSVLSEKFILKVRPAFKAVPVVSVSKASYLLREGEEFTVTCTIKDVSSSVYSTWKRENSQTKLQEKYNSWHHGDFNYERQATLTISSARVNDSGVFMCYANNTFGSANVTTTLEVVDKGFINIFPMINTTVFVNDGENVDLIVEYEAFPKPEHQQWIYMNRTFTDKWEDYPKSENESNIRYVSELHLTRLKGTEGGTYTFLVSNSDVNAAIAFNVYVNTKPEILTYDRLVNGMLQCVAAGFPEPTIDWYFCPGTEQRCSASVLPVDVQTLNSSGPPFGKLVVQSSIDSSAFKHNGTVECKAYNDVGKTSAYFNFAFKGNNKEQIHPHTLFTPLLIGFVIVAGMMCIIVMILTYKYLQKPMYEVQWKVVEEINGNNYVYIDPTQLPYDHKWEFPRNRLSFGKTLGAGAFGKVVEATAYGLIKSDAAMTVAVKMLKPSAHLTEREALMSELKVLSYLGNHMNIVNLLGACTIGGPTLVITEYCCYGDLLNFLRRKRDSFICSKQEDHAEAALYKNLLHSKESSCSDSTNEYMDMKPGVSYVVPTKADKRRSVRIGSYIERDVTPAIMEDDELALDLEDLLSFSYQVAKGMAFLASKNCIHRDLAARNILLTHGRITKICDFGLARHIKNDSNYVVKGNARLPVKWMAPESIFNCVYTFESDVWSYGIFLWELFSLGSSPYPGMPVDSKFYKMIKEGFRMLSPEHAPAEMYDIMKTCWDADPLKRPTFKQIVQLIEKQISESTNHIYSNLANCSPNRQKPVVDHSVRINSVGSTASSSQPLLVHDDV
The subject of experiment [5] is LRRK2 (human), Q5S007 [G2019S].
The test system of experiment [6] is MET (human), P08581 [M1250T].
Experiment [7] deals with RET (human), P07949 [V804L].
Sequence of RET (human), P07949 [V804L] (P07949 whole entry V804L, looked up): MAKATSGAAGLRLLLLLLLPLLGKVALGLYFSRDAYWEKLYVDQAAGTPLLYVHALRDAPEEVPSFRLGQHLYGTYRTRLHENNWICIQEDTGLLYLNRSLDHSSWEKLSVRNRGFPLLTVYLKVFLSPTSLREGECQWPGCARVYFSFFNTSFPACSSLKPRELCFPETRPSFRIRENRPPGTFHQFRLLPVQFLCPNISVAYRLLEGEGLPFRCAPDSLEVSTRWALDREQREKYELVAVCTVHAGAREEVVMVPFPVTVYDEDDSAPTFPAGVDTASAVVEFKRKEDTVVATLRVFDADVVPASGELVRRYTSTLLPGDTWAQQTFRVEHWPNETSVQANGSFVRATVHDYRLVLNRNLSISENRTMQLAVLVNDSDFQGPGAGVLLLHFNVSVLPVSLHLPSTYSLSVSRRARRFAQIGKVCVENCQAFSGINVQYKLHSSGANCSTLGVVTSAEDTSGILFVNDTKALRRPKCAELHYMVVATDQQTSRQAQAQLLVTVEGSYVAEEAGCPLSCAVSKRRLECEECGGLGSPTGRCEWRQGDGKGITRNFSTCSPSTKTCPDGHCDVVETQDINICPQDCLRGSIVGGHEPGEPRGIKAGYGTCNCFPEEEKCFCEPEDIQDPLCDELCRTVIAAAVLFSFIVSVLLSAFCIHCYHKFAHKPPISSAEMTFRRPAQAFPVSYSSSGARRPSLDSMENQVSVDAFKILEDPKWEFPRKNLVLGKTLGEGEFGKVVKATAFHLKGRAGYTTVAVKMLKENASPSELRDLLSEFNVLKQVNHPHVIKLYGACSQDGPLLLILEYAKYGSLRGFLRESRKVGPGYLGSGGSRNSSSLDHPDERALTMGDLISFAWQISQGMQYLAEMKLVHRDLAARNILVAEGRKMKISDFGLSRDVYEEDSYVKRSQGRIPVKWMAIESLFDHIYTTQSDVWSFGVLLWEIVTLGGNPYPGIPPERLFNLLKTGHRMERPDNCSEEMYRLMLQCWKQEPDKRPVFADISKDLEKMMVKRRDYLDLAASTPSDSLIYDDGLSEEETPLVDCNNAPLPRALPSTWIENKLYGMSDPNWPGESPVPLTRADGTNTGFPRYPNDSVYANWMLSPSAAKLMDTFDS
Experiment [8] has as its system KIT (human), P10721 [A829P].
Experiment [9] relates to PIK3CA (human), P42336 [H1047L].
Sequence of PIK3CA (human), P42336 [H1047L] (P42336 whole entry H1047L, looked up): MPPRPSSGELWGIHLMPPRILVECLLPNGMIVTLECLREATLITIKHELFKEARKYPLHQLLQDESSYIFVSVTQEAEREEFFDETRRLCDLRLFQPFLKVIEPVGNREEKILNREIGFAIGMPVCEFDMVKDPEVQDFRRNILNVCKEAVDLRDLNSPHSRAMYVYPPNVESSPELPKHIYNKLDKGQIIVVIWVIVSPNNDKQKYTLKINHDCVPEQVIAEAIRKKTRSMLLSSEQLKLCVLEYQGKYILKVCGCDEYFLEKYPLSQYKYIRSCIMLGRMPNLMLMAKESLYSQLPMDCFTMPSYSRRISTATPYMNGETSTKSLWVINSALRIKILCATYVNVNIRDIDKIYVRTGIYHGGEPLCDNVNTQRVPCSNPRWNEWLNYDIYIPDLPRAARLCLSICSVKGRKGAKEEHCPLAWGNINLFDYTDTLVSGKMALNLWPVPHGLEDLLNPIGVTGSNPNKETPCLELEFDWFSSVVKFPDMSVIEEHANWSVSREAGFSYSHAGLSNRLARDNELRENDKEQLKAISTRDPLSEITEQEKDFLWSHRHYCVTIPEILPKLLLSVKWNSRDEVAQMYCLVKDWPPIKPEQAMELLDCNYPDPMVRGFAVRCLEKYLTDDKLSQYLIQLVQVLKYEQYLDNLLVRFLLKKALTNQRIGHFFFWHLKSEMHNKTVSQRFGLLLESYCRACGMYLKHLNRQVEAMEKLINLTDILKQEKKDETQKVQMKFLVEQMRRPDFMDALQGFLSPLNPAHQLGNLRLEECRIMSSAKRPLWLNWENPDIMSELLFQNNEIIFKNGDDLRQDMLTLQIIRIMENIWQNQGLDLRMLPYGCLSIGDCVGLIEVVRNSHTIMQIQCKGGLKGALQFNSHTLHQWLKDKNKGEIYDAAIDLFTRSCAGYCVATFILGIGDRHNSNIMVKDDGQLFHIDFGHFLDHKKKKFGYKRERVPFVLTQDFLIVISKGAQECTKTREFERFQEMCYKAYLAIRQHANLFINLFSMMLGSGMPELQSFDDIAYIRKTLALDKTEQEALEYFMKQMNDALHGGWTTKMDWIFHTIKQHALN
The subject of experiment [10] is EGFR (human), P00533 [A750P; 747-749 del].
For experiment [11], the system named is PIK3CA (human), P42336 [E542K].
Sequence of PIK3CA (human), P42336 [E542K] (P42336 whole entry E542K, looked up): as the sequence (P42336 whole entry H1047L, looked up) above, with E542K, L1047H counted along it
The subject of experiment [12] is EGFR (human), P00533 [G719C].
The subject of experiment [13] is EGFR (human), P00533 [L858R].
Experiment [14] concerns PIK3CA (human), P42336 [M1043I].
Sequence of PIK3CA (human), P42336 [M1043I] (P42336 whole entry M1043I, looked up): as the sequence (P42336 whole entry H1047L, looked up) above, with M1043I, L1047H counted along it

Sequence of KIT (human), P10721 [A829P] (P10721 whole entry A829P, looked up): as the sequence (P10721 whole entry D816H, looked up) above, with H816D, A829P counted along it
Sequence of BMX (human), P51813 [V600E] (P51813 whole entry, looked up, stated change not applied): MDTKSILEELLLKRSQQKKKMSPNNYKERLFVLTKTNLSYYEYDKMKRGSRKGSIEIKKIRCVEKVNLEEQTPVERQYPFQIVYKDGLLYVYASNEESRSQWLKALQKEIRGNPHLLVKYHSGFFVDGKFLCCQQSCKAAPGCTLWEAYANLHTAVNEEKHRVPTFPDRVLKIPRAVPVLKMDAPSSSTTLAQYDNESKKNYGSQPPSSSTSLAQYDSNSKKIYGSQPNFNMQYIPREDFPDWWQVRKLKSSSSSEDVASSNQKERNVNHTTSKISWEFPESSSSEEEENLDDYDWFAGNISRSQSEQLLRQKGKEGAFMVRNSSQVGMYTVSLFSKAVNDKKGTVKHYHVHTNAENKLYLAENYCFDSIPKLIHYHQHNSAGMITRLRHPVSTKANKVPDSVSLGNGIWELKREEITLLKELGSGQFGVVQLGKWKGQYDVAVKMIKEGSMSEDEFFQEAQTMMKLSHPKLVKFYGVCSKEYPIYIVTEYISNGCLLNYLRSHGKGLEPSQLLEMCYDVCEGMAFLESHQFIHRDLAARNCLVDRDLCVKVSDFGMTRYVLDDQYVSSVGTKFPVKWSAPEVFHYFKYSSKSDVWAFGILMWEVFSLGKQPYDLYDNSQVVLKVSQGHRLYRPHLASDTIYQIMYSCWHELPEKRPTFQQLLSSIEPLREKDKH
Sequence of FGFR3 (human), P22607 [G697C] (P22607 whole entry G697C, looked up): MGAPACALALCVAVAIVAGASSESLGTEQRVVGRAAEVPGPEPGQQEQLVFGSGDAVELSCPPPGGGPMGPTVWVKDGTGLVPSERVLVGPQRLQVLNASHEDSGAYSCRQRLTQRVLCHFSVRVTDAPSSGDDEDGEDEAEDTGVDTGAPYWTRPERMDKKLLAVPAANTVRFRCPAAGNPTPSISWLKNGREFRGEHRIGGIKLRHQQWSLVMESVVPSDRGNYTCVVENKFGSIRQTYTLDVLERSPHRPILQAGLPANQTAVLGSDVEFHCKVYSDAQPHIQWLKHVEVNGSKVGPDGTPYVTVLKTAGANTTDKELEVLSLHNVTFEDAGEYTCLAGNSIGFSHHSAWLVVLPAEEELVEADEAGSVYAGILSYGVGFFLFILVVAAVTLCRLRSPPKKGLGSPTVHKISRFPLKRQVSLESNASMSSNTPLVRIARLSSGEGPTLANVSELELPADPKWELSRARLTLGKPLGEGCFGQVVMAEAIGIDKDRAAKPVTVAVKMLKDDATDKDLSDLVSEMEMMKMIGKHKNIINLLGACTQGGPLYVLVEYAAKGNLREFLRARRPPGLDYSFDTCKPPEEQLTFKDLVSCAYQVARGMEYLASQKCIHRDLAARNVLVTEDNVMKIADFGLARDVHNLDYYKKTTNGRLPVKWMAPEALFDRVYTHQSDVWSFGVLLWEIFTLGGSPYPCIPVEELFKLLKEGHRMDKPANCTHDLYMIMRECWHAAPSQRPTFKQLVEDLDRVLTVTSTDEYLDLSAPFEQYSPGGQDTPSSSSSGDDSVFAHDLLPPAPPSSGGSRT

As to `CCN(CC)CCCCNc1ncc2cc(-c3cc(OC)cc(OC)c3)c(NC(=O)NC(C)(C)C)nc2n1`, the kinase still bound, per cent of control in [1] is 3.7%; in [2], 100%; in [3], 100%.
For `CCCS(=O)(=O)Nc1ccc(F)c(C(=O)c2c[nH]c3ncc(-c4ccc(Cl)cc4)cc23)c1F`, the kinase still bound, per cent of control turned out to be 98% in [4]; 70% in [5]; 25% in [6]; 90% in [7]; 89% in experiment [8]; 100% in experiment [1]. The kinase still bound, per cent of control in experiment [9] was 95%; in experiment [10], 74%; in experiment [11], 100%; in experiment [3] it was 0.2%; in experiment [12], 28%.
Turning to `Cc1cc([C@@H](C)Nc2ccccc2C(=O)O)c2nc(N3CCOCC3)cc(=O)n2c1`, the kinase still bound, per cent of control worked out at 88% in [4]; 100% in [5]; 87% in [6]; 100% in [13]; 99% in experiment [7]; 100% in [8]. The kinase still bound, per cent of control amounted to 100% in [1]; 100% in experiment [10]; 54% in experiment [2]; 92% in experiment [3]; 95% in experiment [12].
For `NC(=O)Nc1cc(-c2cccc(F)c2)sc1C(=O)N[C@@H]1CCCNC1`, the kinase still bound, per cent of control in [5] was determined as 4.2%; in [14], 100%; in experiment [6], 4.7%; in [13] it was 2.2%; in experiment [7], 0%; in experiment [1] it was 22%. For the same compound, the kinase still bound, per cent of control turned out to be 100% in experiment [9]; 0.65% in experiment [10]; 0.1% in experiment [2]; 100% in [11]; 89% in experiment [3]; 0.05% in experiment [12].
For `N#Cc1c(NC(=O)c2cccc3ccccc23)sc2c1CCCC2`, the kinase still bound, per cent of control was 85% in experiment [4]; 94% in experiment [5]; 100% in experiment [14]; 100% in experiment [6]; 90% in experiment [7]; 87% in [8]. Further, the kinase still bound, per cent of control in experiment [1] is 83%; in experiment [9], 70%; in experiment [2], 80%; in [11], 100%; in [3], 93%.
As to `C[C@@H](Oc1cc(-c2cnn(C3CCNCC3)c2)cnc1N)c1c(Cl)ccc(F)c1Cl`, the kinase still bound, per cent of control in experiment [4] amounted to 50%; in experiment [5], 57%; in experiment [8], 35%; in [1], 27%; in [9], 48%; in experiment [2] it was 11%. In [11], this compound showed a kinase still bound, per cent of control of 100%.
For `Nc1ccc(-c2ccc3ncc4ccc(=O)n(-c5cccc(C(F)(F)F)c5)c4c3c2)cn1`, the kinase still bound, per cent of control was 80% in experiment [4]; 81% in experiment [5]; 100% in experiment [6]; 100% in [13]; 100% in experiment [7]; 64% in experiment [8]. Moreover, the kinase still bound, per cent of control in experiment [1] was 89%; in [9], 0%; in [10], 100%; in experiment [2], 32%; in experiment [3], 95%; in experiment [12], 71%.
Consider `CNC(=O)c1cc(Oc2ccc(NC(=O)Nc3ccc(Cl)c(C(F)(F)F)c3)cc2)ccn1`, for which the kinase still bound, per cent of control turned out to be 36% in experiment [4]; 83% in experiment [6]; 0.1% in experiment [7]; 59% in experiment [8]; 39% in experiment [1]; 3.2% in [2]. In experiment [3], this compound had a kinase still bound, per cent of control of 0.05%.
With `COCC(=O)NC/C=C/c1ccc2ncnc(Nc3ccc(Oc4ccc(C)nc4)c(C)c3)c2c1`, the kinase still bound, per cent of control in experiment [4] was determined as 100%; in [5], 98%; in [14] it was 100%; in experiment [6], 100%; in [7] it was 100%; in [1], 90%. The figures for the kinase still bound, per cent of control in experiment [9], in experiment [11] and in [3] were 100%, 100% and 80%, respectively.
On to `O=C(NOC[C@H](O)CO)c1ccc(F)c(F)c1Nc1ccc(I)cc1F`, for which the kinase still bound, per cent of control was determined as 91% in experiment [4]; 100% in experiment [5]; 42% in [14]; 92% in experiment [6]; 79% in experiment [13]; 93% in [7]. Moreover, the kinase still bound, per cent of control is 88% in experiment [1]; 45% in experiment [9]; 100% in experiment [2]; 57% in [11]; 100% in experiment [3]; 86% in experiment [12].
Take `Cc1ccc2nc(NCCN)c3ncc(C)n3c2c1`: the kinase still bound, per cent of control in [4], in experiment [14], in experiment [6], in [7], in experiment [1] and in experiment [9] was 100% in each case. Besides, the kinase still bound, per cent of control amounted to 100% in [10], 97% in experiment [2], 100% in [11] and 60% in experiment [3].
Turning to `O=C(O)c1ccc(Nc2ncc3c(n2)-c2ccc(Cl)cc2C(c2c(F)cccc2F)=NC3)cc1`, the kinase still bound, per cent of control in experiment [5] is 100%; in experiment [6], 58%; in [13], 29%; in experiment [7], 88%; in experiment [8], 100%; in experiment [1] it was 12%. Moreover, the kinase still bound, per cent of control in experiment [9] was determined as 79%; in [10], 28%; in [2], 72%; in experiment [12], 77%.
